Test results from ChEMBL document CHEMBL4507327 (2021).
Each block holds one compound with its values, some of them ahead of it.

How the values were obtained:
[1] = target: Endothelin-1 receptor (Homo sapiens) (UniProt P25101); details: Compound concentration 10.0 uM
[2] = target: 5-hydroxytryptamine receptor 2B (Homo sapiens) (UniProt P41595); details: Compound concentration 10.0 uM
Oryctolagus cuniculus = organism: Oryctolagus cuniculus; details: Compound concentration 10.0 uM
[3] = target: Serine/threonine-protein kinase N2 (Homo sapiens, UniProt Q16513); assay: PKN2 [PRK2(PKN2LGG5)] Takeda global kinase panel
[4] = target: Muscarinic acetylcholine receptor M5 (Homo sapiens) (UniProt P08912); details: Compound concentration 10.0 uM
[5] = target: T1, Alpha-1A adrenergic receptor (Homo sapiens) (UniProt P35348); details: Compound concentration 10.0 uM
T1 sequence (whole entry): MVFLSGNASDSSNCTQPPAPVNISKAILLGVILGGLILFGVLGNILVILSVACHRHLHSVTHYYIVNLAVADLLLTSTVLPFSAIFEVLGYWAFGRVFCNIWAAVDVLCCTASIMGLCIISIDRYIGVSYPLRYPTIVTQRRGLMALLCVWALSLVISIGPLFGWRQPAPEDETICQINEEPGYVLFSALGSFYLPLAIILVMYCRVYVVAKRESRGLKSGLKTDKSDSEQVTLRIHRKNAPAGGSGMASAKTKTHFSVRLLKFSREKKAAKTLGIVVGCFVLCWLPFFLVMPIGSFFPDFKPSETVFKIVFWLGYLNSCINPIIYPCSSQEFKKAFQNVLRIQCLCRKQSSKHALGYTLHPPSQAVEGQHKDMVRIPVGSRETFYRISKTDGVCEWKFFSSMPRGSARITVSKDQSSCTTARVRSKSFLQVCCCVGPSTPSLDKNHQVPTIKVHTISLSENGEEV

[6] = target: GABA-A receptor; anion channel (Rattus norvegicus) (UniProt O09028+P15431+P18506+P18508+P19969+P20236+P23574+P23576+P28471+P28473+P30191+P62813+P63079+P63138+Q91ZM7+Q9ES14); details: Compound concentration 10.0 uM
[7] = GPCRScan assay: inhibition of GABA/PBR; set-up: species or system Rattus norvegicus; radioligand conc. used [nm] 0.3 – 2.0, parental cells brain tissue
[8] = target: Alpha-2C adrenergic receptor (Homo sapiens) (UniProt P18825); details: Compound concentration 10.0 uM
[9] = target: Histamine H2 receptor (Homo sapiens) (UniProt P25021); details: Compound concentration 10.0 uM
[10] = target: Beta-1 adrenergic receptor (Homo sapiens) (UniProt P08588); details: Compound concentration 10.0 uM
Beta-1 adrenergic receptor (Homo sapiens), sequence (P08588 whole entry, looked up): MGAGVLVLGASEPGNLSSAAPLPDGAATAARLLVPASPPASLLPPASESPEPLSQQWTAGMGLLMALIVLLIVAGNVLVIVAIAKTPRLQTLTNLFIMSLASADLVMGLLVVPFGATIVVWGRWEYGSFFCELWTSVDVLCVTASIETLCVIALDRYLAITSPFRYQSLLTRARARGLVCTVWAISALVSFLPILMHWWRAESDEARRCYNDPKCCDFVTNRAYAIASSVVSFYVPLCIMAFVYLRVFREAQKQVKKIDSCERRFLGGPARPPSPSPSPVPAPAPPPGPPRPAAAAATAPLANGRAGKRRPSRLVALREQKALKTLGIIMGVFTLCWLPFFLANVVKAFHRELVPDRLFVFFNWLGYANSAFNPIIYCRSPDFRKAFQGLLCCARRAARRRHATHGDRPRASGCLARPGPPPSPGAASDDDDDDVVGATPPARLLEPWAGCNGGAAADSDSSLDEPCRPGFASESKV

[11] = target: Mitogen-activated protein kinase 4 (Homo sapiens, UniProt P31152); assay: ERK4(MAP4LGY1) Takeda global kinase panel
[12] = target: Alpha-2A adrenergic receptor (Homo sapiens) (UniProt P08913); details: Compound concentration 10.0 uM
Alpha-2A adrenergic receptor (Homo sapiens), sequence (P08913 whole entry): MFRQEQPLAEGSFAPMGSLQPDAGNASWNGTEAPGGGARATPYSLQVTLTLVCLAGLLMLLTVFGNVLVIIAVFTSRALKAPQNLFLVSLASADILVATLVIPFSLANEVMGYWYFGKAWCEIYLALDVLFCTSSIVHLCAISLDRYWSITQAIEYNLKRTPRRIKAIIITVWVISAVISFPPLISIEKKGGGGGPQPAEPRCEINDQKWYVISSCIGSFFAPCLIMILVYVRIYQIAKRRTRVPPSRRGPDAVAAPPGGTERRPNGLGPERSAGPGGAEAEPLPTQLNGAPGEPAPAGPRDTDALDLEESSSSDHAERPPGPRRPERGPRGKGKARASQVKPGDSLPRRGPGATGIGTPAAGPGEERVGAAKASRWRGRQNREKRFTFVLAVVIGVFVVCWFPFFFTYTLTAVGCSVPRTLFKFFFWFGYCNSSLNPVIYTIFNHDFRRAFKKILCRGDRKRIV

[13] = target: 5-hydroxytryptamine receptor 2C (Homo sapiens) (UniProt P28335); details: Compound concentration 10.0 uM
[14] = target: 5-hydroxytryptamine receptor 2A (Homo sapiens) (UniProt P28223); details: Compound concentration 10.0 uM
[15] = target: Serine/threonine-protein kinase LATS1 (Homo sapiens, UniProt O95835); assay: LATS1(LAT1LGRJ) Takeda global kinase panel
[16] = target: Tyrosine-protein kinase ZAP-70 (Homo sapiens, UniProt P43403); assay: ZAP70(ZAP7LGP1) Takeda global kinase panel
[17] = target: cAMP-dependent protein kinase catalytic subunit beta (Homo sapiens, UniProt P22694); assay: PKAbeta(PRCBLGF1) Takeda global kinase panel
[18] = target: Calcium/calmodulin-dependent protein kinase kinase 2 (Homo sapiens, UniProt Q96RR4); assay: CAMKK2(CAK2LGT5) Takeda global kinase panel
Ephrin type-A receptor 2 = Ephrin type-A receptor 2 (Homo sapiens, UniProt P29317); assay: EphA2(EPA2LGY1) Takeda global kinase panel
Ephrin type-A receptor 2, sequence (P29317 whole entry): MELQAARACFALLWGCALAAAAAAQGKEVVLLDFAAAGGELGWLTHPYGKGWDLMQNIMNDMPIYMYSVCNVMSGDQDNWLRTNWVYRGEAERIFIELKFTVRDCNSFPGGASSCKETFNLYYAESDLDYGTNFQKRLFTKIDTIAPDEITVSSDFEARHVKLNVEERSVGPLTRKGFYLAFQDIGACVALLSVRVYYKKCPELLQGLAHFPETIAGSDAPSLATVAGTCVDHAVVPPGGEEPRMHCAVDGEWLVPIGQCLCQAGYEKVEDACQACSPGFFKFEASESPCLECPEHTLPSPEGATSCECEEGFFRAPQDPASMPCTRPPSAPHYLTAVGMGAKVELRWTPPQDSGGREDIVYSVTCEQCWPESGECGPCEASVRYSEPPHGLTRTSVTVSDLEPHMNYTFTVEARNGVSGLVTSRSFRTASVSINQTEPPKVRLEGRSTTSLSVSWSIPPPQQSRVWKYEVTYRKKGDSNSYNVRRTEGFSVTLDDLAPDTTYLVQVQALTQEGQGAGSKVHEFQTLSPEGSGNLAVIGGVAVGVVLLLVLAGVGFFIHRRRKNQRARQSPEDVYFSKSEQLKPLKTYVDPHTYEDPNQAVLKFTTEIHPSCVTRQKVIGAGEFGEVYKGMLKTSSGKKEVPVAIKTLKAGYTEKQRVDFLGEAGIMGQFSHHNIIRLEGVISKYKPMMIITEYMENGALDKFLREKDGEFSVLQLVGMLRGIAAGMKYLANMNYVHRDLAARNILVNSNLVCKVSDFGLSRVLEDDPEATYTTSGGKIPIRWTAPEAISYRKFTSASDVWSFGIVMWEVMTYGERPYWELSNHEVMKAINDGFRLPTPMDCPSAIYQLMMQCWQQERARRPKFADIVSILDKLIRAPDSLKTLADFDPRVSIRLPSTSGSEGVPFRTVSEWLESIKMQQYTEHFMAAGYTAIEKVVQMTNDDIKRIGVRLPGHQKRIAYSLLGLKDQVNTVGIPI

Focal adhesion kinase 1 = Focal adhesion kinase 1 (Homo sapiens, UniProt Q05397); assay: FAK(PTK2LGF1) Takeda global kinase panel
Focal adhesion kinase 1, sequence (Q05397 whole entry): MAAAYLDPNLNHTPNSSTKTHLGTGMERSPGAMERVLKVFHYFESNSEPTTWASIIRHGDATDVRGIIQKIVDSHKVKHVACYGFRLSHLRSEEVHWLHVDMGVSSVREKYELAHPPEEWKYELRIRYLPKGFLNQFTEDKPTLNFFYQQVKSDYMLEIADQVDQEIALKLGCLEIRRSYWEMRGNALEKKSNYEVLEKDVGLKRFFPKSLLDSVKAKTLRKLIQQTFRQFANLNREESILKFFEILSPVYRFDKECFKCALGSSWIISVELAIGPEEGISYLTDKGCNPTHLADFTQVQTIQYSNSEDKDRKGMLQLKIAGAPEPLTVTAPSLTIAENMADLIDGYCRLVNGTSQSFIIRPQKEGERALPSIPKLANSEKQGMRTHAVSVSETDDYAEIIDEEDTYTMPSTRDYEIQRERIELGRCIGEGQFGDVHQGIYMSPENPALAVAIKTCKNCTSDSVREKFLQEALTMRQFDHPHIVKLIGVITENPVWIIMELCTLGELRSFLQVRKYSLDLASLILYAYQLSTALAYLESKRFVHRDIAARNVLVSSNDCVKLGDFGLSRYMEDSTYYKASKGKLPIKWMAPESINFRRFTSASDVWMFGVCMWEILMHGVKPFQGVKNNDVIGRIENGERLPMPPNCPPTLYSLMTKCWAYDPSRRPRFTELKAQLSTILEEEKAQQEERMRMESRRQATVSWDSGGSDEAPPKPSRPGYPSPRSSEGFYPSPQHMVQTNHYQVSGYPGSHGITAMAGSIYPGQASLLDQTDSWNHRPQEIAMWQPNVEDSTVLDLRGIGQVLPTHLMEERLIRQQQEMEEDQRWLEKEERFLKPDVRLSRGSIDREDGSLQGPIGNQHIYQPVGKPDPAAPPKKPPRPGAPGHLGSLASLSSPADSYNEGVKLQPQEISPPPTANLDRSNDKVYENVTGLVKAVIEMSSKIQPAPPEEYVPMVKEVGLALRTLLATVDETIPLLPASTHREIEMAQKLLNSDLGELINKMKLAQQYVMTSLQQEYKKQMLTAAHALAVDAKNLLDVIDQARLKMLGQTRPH

[19] = target: 5'-AMP-activated protein kinase catalytic subunit alpha-1 (Homo sapiens, UniProt Q13131); assay: AMPKalpha1(PRA1PGF1) Takeda global kinase panel
[20] = target: Macrophage-stimulating protein receptor (Homo sapiens, UniProt Q04912); assay: Ron(MST1MGY1) Takeda global kinase panel
[21] = target: Tyrosine-protein kinase Yes (Homo sapiens, UniProt P07947); assay: Yes(YES1LGF1) Takeda global kinase panel
[22] = target: Calcium/calmodulin-dependent protein kinase kinase 1 (Homo sapiens, UniProt Q8N5S9); assay: CAMKK1(CAK1LGT5) Takeda global kinase panel
[23] = target: Tyrosine-protein kinase Fyn (Homo sapiens, UniProt P06241); assay: Fyn(FYN1LGF5) Takeda global kinase panel
Tyrosine-protein kinase Fyn, sequence (P06241 whole entry): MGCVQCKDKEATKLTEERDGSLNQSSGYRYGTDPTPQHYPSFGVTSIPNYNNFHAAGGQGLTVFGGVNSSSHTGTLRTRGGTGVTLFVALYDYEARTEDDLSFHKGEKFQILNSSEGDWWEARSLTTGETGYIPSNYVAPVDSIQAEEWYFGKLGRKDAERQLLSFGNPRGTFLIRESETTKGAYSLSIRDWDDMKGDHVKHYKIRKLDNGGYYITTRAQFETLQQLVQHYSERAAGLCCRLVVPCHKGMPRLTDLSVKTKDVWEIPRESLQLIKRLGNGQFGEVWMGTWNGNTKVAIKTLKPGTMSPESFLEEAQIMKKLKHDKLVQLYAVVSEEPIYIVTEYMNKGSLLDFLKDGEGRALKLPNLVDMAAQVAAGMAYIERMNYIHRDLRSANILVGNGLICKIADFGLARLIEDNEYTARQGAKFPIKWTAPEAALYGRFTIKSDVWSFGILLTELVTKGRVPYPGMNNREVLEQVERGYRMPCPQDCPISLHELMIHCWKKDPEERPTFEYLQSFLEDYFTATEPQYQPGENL

[24] = target: Calcium/calmodulin-dependent protein kinase type II subunit delta (Homo sapiens, UniProt Q13557); assay: CaMK2delta(CA2DCGT1) Takeda global kinase panel
Myosin-IIIa = Myosin-IIIa (Homo sapiens, UniProt Q8NEV4); assay: MYO3A(MY3ALGRI) Takeda global kinase panel
[25] = target: Proto-oncogene tyrosine-protein kinase Src (Homo sapiens, UniProt P12931); assay: Src(SRC1LGF5) Takeda global kinase panel
[26] = target: Serine/threonine-protein kinase TAO1 (Homo sapiens, UniProt Q7L7X3); assay: TAO1(TAO1LGF1) Takeda global kinase panel
[27] = target: Mitogen-activated protein kinase 7 (Homo sapiens, UniProt Q13164); assay: ERK5(MAP7LGF1) Takeda global kinase panel
[28] = target: MAP kinase-activated protein kinase 5 (Homo sapiens, UniProt Q8IW41); assay: MAPKAPK5(MPK5LGN1) Takeda global kinase panel
[29] = target: cAMP-dependent protein kinase catalytic subunit alpha (Homo sapiens, UniProt P17612); assay: PKAalpha(PRCALGH1) Takeda global kinase panel
[30] = target: Receptor-interacting serine/threonine-protein kinase 4 (Homo sapiens, UniProt P57078); assay: ANKRD3(RIP4LGN1) Takeda global kinase panel
[31] = target: Inhibitor of nuclear factor kappa-B kinase subunit alpha (Homo sapiens, UniProt O15111); assay: IKKalpha(CHUKLGP1) Takeda global kinase panel
Inhibitor of nuclear factor kappa-B kinase subunit alpha, sequence (O15111 whole entry): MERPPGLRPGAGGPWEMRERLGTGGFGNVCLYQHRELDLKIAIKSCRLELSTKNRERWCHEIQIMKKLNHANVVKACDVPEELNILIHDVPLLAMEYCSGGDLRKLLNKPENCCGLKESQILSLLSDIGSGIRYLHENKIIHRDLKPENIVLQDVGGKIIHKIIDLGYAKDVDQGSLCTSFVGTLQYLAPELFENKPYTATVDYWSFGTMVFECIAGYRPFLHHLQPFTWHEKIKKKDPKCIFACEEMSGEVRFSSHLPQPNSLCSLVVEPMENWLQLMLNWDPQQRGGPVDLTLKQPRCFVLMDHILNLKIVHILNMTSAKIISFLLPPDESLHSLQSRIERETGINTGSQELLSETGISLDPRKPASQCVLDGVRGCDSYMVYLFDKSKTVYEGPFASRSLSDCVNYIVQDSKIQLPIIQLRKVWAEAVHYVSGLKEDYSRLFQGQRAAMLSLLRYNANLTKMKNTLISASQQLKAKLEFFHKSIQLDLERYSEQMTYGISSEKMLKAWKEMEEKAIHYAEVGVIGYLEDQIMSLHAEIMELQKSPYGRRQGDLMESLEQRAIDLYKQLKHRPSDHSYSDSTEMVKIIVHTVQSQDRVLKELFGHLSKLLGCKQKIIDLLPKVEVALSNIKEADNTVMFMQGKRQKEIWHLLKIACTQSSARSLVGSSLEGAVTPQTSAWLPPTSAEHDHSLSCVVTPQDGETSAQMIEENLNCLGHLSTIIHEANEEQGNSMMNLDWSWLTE

[32] = target: Protein kinase C gamma type (Homo sapiens, UniProt P05129); assay: PKCgamma(PRKGLGP1) Takeda global kinase panel
[33] = target: Tyrosine-protein kinase Lyn (Homo sapiens, UniProt P07948); assay: Lyn(LYN1LGF1) Takeda global kinase panel
[34] = target: cAMP-dependent protein kinase catalytic subunit gamma (Homo sapiens, UniProt P22612); assay: PKAgamma(PRCGLGY1) Takeda global kinase panel
cAMP-dependent protein kinase catalytic subunit gamma, sequence (P22612 whole entry): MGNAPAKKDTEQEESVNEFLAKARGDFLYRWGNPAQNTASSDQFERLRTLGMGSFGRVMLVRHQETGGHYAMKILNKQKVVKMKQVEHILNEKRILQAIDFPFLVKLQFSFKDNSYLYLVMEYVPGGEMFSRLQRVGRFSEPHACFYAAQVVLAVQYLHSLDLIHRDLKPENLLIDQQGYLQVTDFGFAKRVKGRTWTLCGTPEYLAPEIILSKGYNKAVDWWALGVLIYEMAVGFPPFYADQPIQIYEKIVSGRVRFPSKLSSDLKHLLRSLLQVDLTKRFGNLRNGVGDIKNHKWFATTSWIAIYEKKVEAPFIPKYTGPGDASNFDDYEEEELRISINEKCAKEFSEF

[35] = target: Serine/threonine-protein kinase 25 (Homo sapiens, UniProt O00506); assay: YSK1(ST25LHY1) Takeda global kinase panel
Serine/threonine-protein kinase 25, sequence (O00506 whole entry): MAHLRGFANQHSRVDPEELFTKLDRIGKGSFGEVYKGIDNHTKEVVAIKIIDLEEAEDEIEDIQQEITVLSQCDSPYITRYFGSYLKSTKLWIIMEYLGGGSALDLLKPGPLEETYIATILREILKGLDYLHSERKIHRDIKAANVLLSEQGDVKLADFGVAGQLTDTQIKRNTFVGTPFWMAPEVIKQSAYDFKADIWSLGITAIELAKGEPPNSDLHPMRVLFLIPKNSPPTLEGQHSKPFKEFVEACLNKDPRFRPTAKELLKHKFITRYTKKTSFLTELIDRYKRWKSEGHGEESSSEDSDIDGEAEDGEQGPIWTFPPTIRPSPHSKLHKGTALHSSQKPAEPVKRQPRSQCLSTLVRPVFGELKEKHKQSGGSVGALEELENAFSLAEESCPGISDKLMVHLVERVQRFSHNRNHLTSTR

Structure (SMILES): CN1C(=O)[C@@H](N2CCc3cn(Cc4ccccc4)nc3C2=O)COc2ccccc21 [TP-030-1]
inhibition [1]: -5%
inhibition [2]: 12%
inhibition (Oryctolagus cuniculus): -6%
IC50 [3]: 1 µM
inhibition [4]: 6.63%
inhibition [5]: -0.5%
inhibition [6]: 10.5%
Ki [7]: 0.375 µM
pKi [7]: 6.425
inhibition [8]: 34.7%
inhibition [9]: 11.9%
inhibition [10]: 5.21%
IC50 [11]: 1 µM
inhibition [12]: 19.1%
inhibition [13]: -2.89%
inhibition [14]: 3.8%
IC50 [15]: 1 µM

IC50 [16]: 1 µM
IC50 [17]: 1 µM
IC50 [18]: 1 µM
IC50 (Ephrin type-A receptor 2): 1 µM
IC50 (Focal adhesion kinase 1): 1 µM
IC50 [19]: 1 µM
IC50 [20]: 1 µM
IC50 [21]: 1 µM
IC50 [22]: 1 µM
IC50 [23]: 1 µM
IC50 [24]: 1 µM
IC50 (Myosin-IIIa): 1 µM
IC50 [25]: 1 µM
IC50 [26]: 1 µM
IC50 [27]: 1 µM
IC50 [28]: 1 µM
IC50 [29]: 1 µM
IC50 [30]: 1 µM
IC50 [31]: 1 µM
IC50 [32]: 1 µM
IC50 [33]: 1 µM
IC50 [34]: 1 µM
IC50 [35]: 1 µM
Structure (SMILES): CN1C(=O)[C@@H](N2CCc3cn(CC4CCS(=O)(=O)CC4)nc3C2=O)COc2ccccc21 [TP-030n]
